Patent US20250255867A1 (Kadmon Corporation, LLC, priority 2022, published 2025)

Details: Cohort 2 200 mg BID

SMILES: CC(C)NC(=O)COc1cccc(-c2nc(Nc3ccc4[nH]ncc4c3)c3ccccc3n2)c1 [Belumosudil, 2-{3-[4-(1H-indazol-5-ylamino)-2-quinazolinyl]phenoxy}-N-(propan-2-yl) acetamide]
- Conjunctivitis: Affected/At Risk (%): (6.25%)
- Constipation: # Events: 1
- Constipation: Affected/At Risk: 1/16
- Constipation: Affected/At Risk (%): (6.25%)
- Contrast media allergy: # Events: 2
- Contrast media allergy: Affected/At Risk: 2/16
- Contrast media allergy: Affected/At Risk (%): (12.5%)
- Contusion: # Events: 2
- Contusion: Affected/At Risk: 2/16
- Contusion: Affected/At Risk (%): (12.5%)
- Corneal abrasion: # Events: 0
- Corneal abrasion: Affected/At Risk: 0/16
- Corneal abrasion: Affected/At Risk (%): (0%)
- Corneal infection: # Events: 2
- Corneal infection: Affected/At Risk: 1/16
- Corneal infection: Affected/At Risk (%): (6.25%)
- Cough: # Events: 5
- Cough: Affected/At Risk: 4/16
- Cough: Affected/At Risk (%): (25%)
- Decreased appetite: # Events: 2
- Decreased appetite: Affected/At Risk: 2/16
- Decreased appetite: Affected/At Risk (%): (12.5%)
- Dehydration: # Events: 4
- Dehydration: Affected/At Risk: 3/16
- Dehydration: Affected/At Risk (%): (18.75%)
- Depression: # Events: 4
- Depression: Affected/At Risk: 4/16
- Depression: Affected/At Risk (%): (25%)
- Diarrhoea: # Events: 10
- Diarrhoea: Affected/At Risk: 5/16
- Diarrhoea: Affected/At Risk (%): (31.25%)
- Dizziness: # Events: 4
- Dizziness: Affected/At Risk: 1/16
- Dizziness: Affected/At Risk (%): (6.25%)
- Drug eruption: # Events: 1
- Drug eruption: Affected/At Risk: 1/16
- Drug eruption: Affected/At Risk (%): (6.25%)
- Dry eye: # Events: 4
- Dry eye: Affected/At Risk: 4/16
- Dry eye: Affected/At Risk (%): (25%)
- Dry skin: # Events: 0
- Dry skin: Affected/At Risk: 0/16
- Dry skin: Affected/At Risk (%): (0%)
- Dyspepsia: # Events: 2
- Dyspepsia: Affected/At Risk: 2/16
- Dyspepsia: Affected/At Risk (%): (12.5%)
- Dysphagia: # Events: 4
- Dysphagia: Affected/At Risk: 3/16
- Dysphagia: Affected/At Risk (%): (18.75%)
- Dyspnoea exertional: # Events: 0
- Dyspnoea exertional: Affected/At Risk: 0/16
- Dyspnoea exertional: Affected/At Risk (%): (0%)
- Dyspnoea: # Events: 7
- Dyspnoea: Affected/At Risk: 5/16
- Dyspnoea: Affected/At Risk (%): (31.25%)
- Embolism: # Events: 0
- Embolism: Affected/At Risk: 0/16
- Embolism: Affected/At Risk (%): (0%)
- Enamel anomaly: # Events: 1
- Enamel anomaly: Affected/At Risk: 1/16
- Enamel anomaly: Affected/At Risk (%): (6.25%)
- Epidural lipomatosis: # Events: 0
- Epidural lipomatosis: Affected/At Risk: 0/16
- Epidural lipomatosis: Affected/At Risk (%): (0%)
- Epstein-Barr virus infection: # Events: 0
- Epstein-Barr virus infection: Affected/At Risk: 0/16
- Epstein-Barr virus infection: Affected/At Risk (%): (0%)
- Erectile dysfunction: # Events: 0
- Erectile dysfunction: Affected/At Risk: 0/16
- Erectile dysfunction: Affected/At Risk (%): (0%)
- Eye irritation: # Events: 0
- Eye irritation: Affected/At Risk: 0/16
- Eye irritation: Affected/At Risk (%): (0%)
- Eye pain: # Events: 4
- Eye pain: Affected/At Risk: 2/16
- Eye pain: Affected/At Risk (%): (12.5%)
- Eye pruritus: # Events: 1
- Eye pruritus: Affected/At Risk: 1/16
- Eye pruritus: Affected/At Risk (%): (6.25%)
- Fall: # Events: 1
- Fall: Affected/At Risk: 1/16
- Fall: Affected/At Risk (%): (6.25%)
- Fatigue: # Events: 7
- Fatigue: Affected/At Risk: 3/16
- Fatigue: Affected/At Risk (%): (18.75%)
- Flatulence: # Events: 2
- Flatulence: Affected/At Risk: 1/16
- Flatulence: Affected/At Risk (%): (6.25%)
- Flushing: # Events: 1
- Flushing: Affected/At Risk: 1/16
- Flushing: Affected/At Risk (%): (6.25%)
- Fungal infection: # Events: 0
- Fungal infection: Affected/At Risk: 0/16
- Fungal infection: Affected/At Risk (%): (0%)
- Gamma-glutamyltransferase increased: # Events: 4
- Gamma-glutamyltransferase increased: Affected/At Risk: 4/16
- Gamma-glutamyltransferase increased: Affected/At Risk (%): (25%)
- Gastric ulcer: # Events: 1
- Gastric ulcer: Affected/At Risk: 1/16
- Gastric ulcer: Affected/At Risk (%): (6.25%)
- Gastrooesophageal reflux disease: # Events: 1
- Gastrooesophageal reflux disease: Affected/At Risk: 1/16
- Gastrooesophageal reflux disease: Affected/At Risk (%): (6.25%)
- Generalised oedema: # Events: 0
- Generalised oedema: Affected/At Risk: 0/16
- Generalised oedema: Affected/At Risk (%): (0%)
- Genital infection fungal: # Events: 1
- Genital infection fungal: Affected/At Risk: 1/16
- Genital infection fungal: Affected/At Risk (%): (6.25%)
- Glaucoma: # Events: 1
- Glaucoma: Affected/At Risk: 1/16
- Glaucoma: Affected/At Risk (%): (6.25%)
- Glucose urine present: # Events: 0
- Glucose urine present: Affected/At Risk: 0/16
- Glucose urine present: Affected/At Risk (%): (0%)
- Graft versus host disease in gastrointestinal tract: # Events: 0
- Graft versus host disease in gastrointestinal tract: Affected/At Risk: 0/16
- Graft versus host disease in gastrointestinal tract: Affected/At Risk (%): (0%)
- Gynaecomastia: # Events: 1
- Gynaecomastia: Affected/At Risk: 1/16
- Gynaecomastia: Affected/At Risk (%): (6.25%)
- Haematuria: # Events: 1
- Haematuria: Affected/At Risk: 1/16
- Haematuria: Affected/At Risk (%): (6.25%)
- Hair growth abnormal: # Events: 0
- Hair growth abnormal: Affected/At Risk: 0/16
- Hair growth abnormal: Affected/At Risk (%): (0%)
- Headache: # Events: 3
- Headache: Affected/At Risk: 3/16
- Headache: Affected/At Risk (%): (18.75%)
- Hodgkin's disease recurrent: # Events: 0
- Hodgkin's disease recurrent: Affected/At Risk: 0/16
- Hodgkin's disease recurrent: Affected/At Risk (%): (0%)
- Hordeolum: # Events: 0
- Hordeolum: Affected/At Risk: 0/16
- Hordeolum: Affected/At Risk (%): (0%)
- Hot flush: # Events: 0
- Hot flush: Affected/At Risk: 0/16
- Hot flush: Affected/At Risk (%): (0%)
- Hyperglycemia: # Events: 0
- Hyperglycemia: Affected/At Risk: 0/16
- Hyperglycemia: Affected/At Risk (%): (0%)
- Hyperhidrosis: # Events: 1
- Hyperhidrosis: Affected/At Risk: 1/16
- Hyperhidrosis: Affected/At Risk (%): (6.25%)
- Hyperkalaemia: # Events: 2
- Hyperkalaemia: Affected/At Risk: 2/16
- Hyperkalaemia: Affected/At Risk (%): (12.5%)
- Hypertension: # Events: 5
- Hypertension: Affected/At Risk: 2/16
- Hypertension: Affected/At Risk (%): (12.5%)
- Hyperthyroidism: # Events: 1
- Hyperthyroidism: Affected/At Risk: 1/16
- Hyperthyroidism: Affected/At Risk (%): (6.25%)
- Hypertriglyceridaemia: # Events: 1
- Hypertriglyceridaemia: Affected/At Risk: 1/16
- Hypertriglyceridaemia: Affected/At Risk (%): (6.25%)
- Hyperuricaemia: # Events: 2
- Hyperuricaemia: Affected/At Risk: 1/16
- Hyperuricaemia: Affected/At Risk (%): (6.25%)
- Hypoaesthesia: # Events: 0
- Hypoaesthesia: Affected/At Risk: 0/16
- Hypoaesthesia: Affected/At Risk (%): (0%)
- Hypocalcaemia: # Events: 4
- Hypocalcaemia: Affected/At Risk: 1/16
- Hypocalcaemia: Affected/At Risk (%): (6.25%)
- Hypogonadism: # Events: 0
- Hypogonadism: Affected/At Risk: 0/16
- Hypogonadism: Affected/At Risk (%): (0%)
- Hypokalaemia: # Events: 3
- Hypokalaemia: Affected/At Risk: 2/16
- Hypokalaemia: Affected/At Risk (%): (12.5%)
- Hypomagnesaemia: # Events: 1
- Hypomagnesaemia: Affected/At Risk: 1/16
- Hypomagnesaemia: Affected/At Risk (%): (6.25%)
- Hyponatraemia: # Events: 0
- Hyponatraemia: Affected/At Risk: 0/16
- Hyponatraemia: Affected/At Risk (%): (0%)
- Hypophosphataemia: # Events: 1
- Hypophosphataemia: Affected/At Risk: 1/16
- Hypophosphataemia: Affected/At Risk (%): (6.25%)
- Hypothermia: # Events: 1
- Hypothermia: Affected/At Risk: 1/16
- Hypothermia: Affected/At Risk (%): (6.25%)
- Hypothyroidism: # Events: 2
- Hypothyroidism: Affected/At Risk: 1/16
- Hypothyroidism: Affected/At Risk (%): (6.25%)
- Hypoxia: # Events: 5
- Hypoxia: Affected/At Risk: 2/16
- Hypoxia: Affected/At Risk (%): (12.5%)
- Impaired healing: # Events: 0
- Impaired healing: Affected/At Risk: 0/16
- Impaired healing: Affected/At Risk (%): (0%)
- Influenza like illness: # Events: 2
- Influenza like illness: Affected/At Risk: 1/16
- Influenza like illness: Affected/At Risk (%): (6.25%)
- Influenza: # Events: 2
- Influenza: Affected/At Risk: 1/16
- Influenza: Affected/At Risk (%): (6.25%)
- Insomnia: # Events: 0
- Insomnia: Affected/At Risk: 0/16
- Insomnia: Affected/At Risk (%): (0%)
- Irritability: # Events: 0
- Irritability: Affected/At Risk: 0/16
- Irritability: Affected/At Risk (%): (0%)
- Joint range of motion decreased: # Events: 1
- Joint range of motion decreased: Affected/At Risk: 1/16
- Joint range of motion decreased: Affected/At Risk (%): (6.25%)
- Lacrimation increased: # Events: 1
- Lacrimation increased: Affected/At Risk: 1/16
- Lacrimation increased: Affected/At Risk (%): (6.25%)
- Leukaemia recurrent: # Events: 0
- Leukaemia recurrent: Affected/At Risk: 0/16
- Leukaemia recurrent: Affected/At Risk (%): (0%)
- Leukocytosis: # Events: 0
- Leukocytosis: Affected/At Risk: 0/16
- Leukocytosis: Affected/At Risk (%): (0%)
- Ligament sprain: # Events: 0
- Ligament sprain: Affected/At Risk: 0/16
- Ligament sprain: Affected/At Risk (%): (0%)
- Limb injury: # Events: 0
- Limb injury: Affected/At Risk: 0/16
- Limb injury: Affected/At Risk (%): (0%)
- Macular degeneration: # Events: 1
- Macular degeneration: Affected/At Risk: 1/16
- Macular degeneration: Affected/At Risk (%): (6.25%)
- Migraine: # Events: 1
- Migraine: Affected/At Risk: 1/16
- Migraine: Affected/At Risk (%): (6.25%)
- Muscle spasms: # Events: 0
- Muscle spasms: Affected/At Risk: 0/16
- Muscle spasms: Affected/At Risk (%): (0%)
- Muscle spasticity: # Events: 0
- Muscle spasticity: Affected/At Risk: 0/16
- Muscle spasticity: Affected/At Risk (%): (0%)
- Muscular weakness: # Events: 1
- Muscular weakness: Affected/At Risk: 1/16
- Muscular weakness: Affected/At Risk (%): (6.25%)
- Musculoskeletal chest pain: # Events: 0
- Musculoskeletal chest pain: Affected/At Risk: 0/16
- Musculoskeletal chest pain: Affected/At Risk (%): (0%)
- Myalgia: # Events: 1
- Myalgia: Affected/At Risk: 1/16
- Myalgia: Affected/At Risk (%): (6.25%)
- Nail disorder: # Events: 0
- Nail disorder: Affected/At Risk: 0/16
- Nail disorder: Affected/At Risk (%): (0%)
- Nausea: # Events: 6
- Nausea: Affected/At Risk: 4/16
- Nausea: Affected/At Risk (%): (25%)
- Neck pain: # Events: 0
- Neck pain: Affected/At Risk: 0/16
- Neck pain: Affected/At Risk (%): (0%)
- Nephrotic syndrome: # Events: 1
- Nephrotic syndrome: Affected/At Risk: 1/16
- Nephrotic syndrome: Affected/At Risk (%): (6.25%)
- Neuropathy peripheral: # Events: 1
- Neuropathy peripheral: Affected/At Risk: 1/16
- Neuropathy peripheral: Affected/At Risk (%): (6.25%)
- Neutrophil count decreased: # Events: 0
- Neutrophil count decreased: Affected/At Risk: 0/16
- Neutrophil count decreased: Affected/At Risk (%): (0%)
- Nocturia: # Events: 0
- Nocturia: Affected/At Risk: 0/16
- Nocturia: Affected/At Risk (%): (0%)
- Non-cardiac chest pain: # Events: 3
- Non-cardiac chest pain: Affected/At Risk: 3/16
- Non-cardiac chest pain: Affected/At Risk (%): (18.75%)
- Obesity: # Events: 0
- Obesity: Affected/At Risk: 0/16
- Obesity: Affected/At Risk (%): (0%)
- Oedema peripheral: # Events: 5
- Oedema peripheral: Affected/At Risk: 4/16
- Oedema peripheral: Affected/At Risk (%): (25%)
